Results: patent US7273723B2, “Antibiotic-based gene regulation system” (priority 2001, dated 2007)

What was measured:
[1] = system: PIT / pristinamycin-responsive promoter PPIR; assay: SEAP assay in CHO-Triplet42 transfected with PPIR-SEAP (pMF172); format: cell-based; settings: CHO-Triplet42 + pMF172 (PPIR); antibiotic 2 μg/ml; 48 h
Protocol: (§1) Chinese hamster ovary cells (CHO-K1, ATCC: CCL 61), and HeLa cells (ATCC: CRL-7923) as well as stable cell lines derived thereof were cultured as described before (Fussenegger et al., 1998, Nat. Biotechnol. 16,468-472) in the presence of appropriate antibiotics: G418 400 μg/ml; zeocin 100 μg/ml. Optimized CaPO4 protocols were used for high efficiency transient transfection of all cell lines (Fussenegger et al., 1998. Nat. Biotechnol. 16: 468-472). Transiently transfected cells were routinely analyzed after 48 h for CFP or SEAP expression using fluorescence microscopy and p-nitrophenolphosphate-based light absorbance timecourse, respectively, as described before (Fussenegger et al., 1998, Nat. Biotechnol. 16, 468-472; Berger et al., 1988, Gene 66, 1-10 b). For construction of stable CHO-ET1 and CHO-Triplet42 cell lines, CHO-Ki and CHO-TWIN1108 (Disclosed in PCT application no. 00/65080) were cotransfected with pWW35 and pZeoSV2 (invitrogen). CHO-ET11-SEAP was constructed by cotransfection of pWW38 and pSV2neo (Clontech) into CHO-ET11. The mixed populations were cloned using FACS-mediated single-cell-sorting (FACStar^Plus; Beckton Dickinson). For assessment of dose-response characteristics of PETR3-regulated gene expression, CHO-ET11-SEAP were cultured at cell densities of 50,000/ml for 48 h at various EM concentrations.
(§2) Other antibiotics were eluted from antibiotic test discs (Mast Diagnostica GmbH, Reinfeld, Germany, or bioMérieux, Geneva Switzerland) in cell culture medium at 37° C. for 12 h to reach a final concentration of 30 μg/ml. All macrolide antibiotics were used at a 2 μg/ml concentration unless indicated otherwise.
(§3) The regulation performance of the EM-based regulation system was compared directly with the widely used TET- and PIP responsive expression concepts. To this end, we have constructed a stable CHO-K1-derived cell line expressing ET1, PIT and tTA (CHO-Triplet42). […] CHO-Triplet42 was transfected with either isogenic (i) PETR3-(pWW38), (ii) a PPIR-(pristinamycin-responsive promoter, pMF172, Fussenegger et al., 2000. supra.), or (iii) a PhCMV*-1-(tetracycline-responsive promoter, pMF111, Fussenegger et al., 2000. supra) driven SEAP expression vector to assess the individual regulation performance of the three antibiotic-responsive gene regulation systems in CHO cells (Table 5).
(§4) To analyze the relative regulatory characteristics, we evaluated induction factors (IF; ratio of maximal expression level to antibiotic-repressed expression level).
(§5) These repressive effects are still in a range which is tolerable for use in potential medical applications.

ET1/PETR3 = assay: CFP expression in CHO cells infected with ET1-encoding lentivirus (pMF391) and transfected with pWW44; format: cell-based; settings: 2 μg/ml erythromycin
[2] = system: ET1/PETR3 positive feedback expression unit; assay: Autoregulated pWW46 (PETR3-CFP-IRES-ET1-pA) CFP expression by fluorescence microscopy; format: cell-based; settings: pWW46 in CHO-K1, HeLa, COS-7 or HEK 293-T cells; erythromycin 2 μg/ml
From the text: These positive feedback regulation vectors that were constructed contain both the cyan fluorescent protein CFP and ET1 in a dicistronic, PETR3-driven configuration.

[3] = system: ET1 / erythromycin-responsive promoter PETR3; assay: SEAP assay in CHO-Triplet42 transfected with PETR3-SEAP (pWW38); format: cell-based; settings: CHO-Triplet42 + PWW38 (PETR3); antibiotic 2 μg/ml; 48 h
Protocol: as §1, §2, §3, §4, §5

CHO cells = assay: CHO cell morphology and growth in the presence of EM; format: cell-based, Chinese hamster; settings: EM 2 μg/ml

Question: What does the source list for CC[C@H]1OC(=O)[C@H](C)[C@@H](O[C@H]2C[C@@](C)(OC)[C@@H](O)[C@H](C)O2)[C@H](C)[C@@H](O[C@@H]2O[C@H](C)C[C@H](N(C)C)[C@H]2O)[C@](C)(O)C[C@@H](C)C(=O)[C@H](C)[C@@H](O)[C@]1(C)O [Erythromycin]?
Answer: SEAP activity [U/L] [1]: 10.1 ± 1.5 U/L; CFP expression (fluorescence) (ET1/PETR3): complete repression; CFP-expression (fluorescence microscopy) [2]: completely repressed; SEAP activity [U/L] [3]: 3.8 ± 0.4 U/L; Effects on CHO cell morphology and growth (CHO cells): No deleterious effects
